Assay results reported in a melting point compilation (Tetko et al.; mined from patent text by program, amines drawn as free bases though some values may be those of a salt).

Row | Compound | melting point [°C]
1 | O=C(c1cc(N2CCC(N3CCCC3)CC2)ccn1)N(O)Cc1ccccc1 | 135 to 140
2 | CSc1nc(=O)n(CCO)cc1F | 161 to 162
3 | C=C(C(=O)N1CCOCC1)c1cccc(-c2cc3c(cc2C)C(C)(C)CCC3(C)C)c1 | 158 to 159
4 | CSc1ccc(-c2coc3ccc(-c4nnc(C)o4)cc23)cc1F | 179 to 180
5 | COc1ccc(N=Nc2ccc(O)c(C(=O)Nc3ccc4[nH]ncc4c3)c2)cc1 | 276 to 277
6 | CC(=O)N(C(C)=O)c1cc2c(c(N(C(C)=O)C(C)=O)c1)OC(C(Cl)(Cl)Cl)OC2C(Cl)(Cl)Cl (stereo not drawn) | 182 to 183
7 | N#Cc1cnc2ccsc2c1NCc1ccc(Cl)cc1Cl | 215 to 216
8 | CC(=O)c1nnc2n1-c1sc(Cl)cc1C(c1ccccc1Cl)=NC2 | 89 to 91
9 | CNC1Oc2cc(Cl)cc(-c3ccc(Cl)cc3C)c2O1 (stereo not drawn) | > 250
10 | CCN(CC)C(=O)n1nc(NC)n(C)c1=O | 83 to 85
11 | O=C(NC1CC1)c1ccc(-c2ccc(C(CC3CCOCC3)c3ccc(S(=O)(=O)C4CC4)cc3)[nH]2)nc1 (stereo not drawn) | 134 to 136
12 | Clc1cc(COCc2cc(Cl)nc(Cl)c2)cc(Cl)n1 | 69.1
13 | CC1(C)OC(=O)Nc2ccc(-c3cc(C(F)(F)F)cc(C(F)(F)F)c3)cc21 | 258 to 260
14 | OC1(c2ccc(-c3ccccc3)nc2)CN2CCC1CC2 (stereo not drawn) | 214
15 | CCc1c(C)sc2nc(C(C)C)c(CO)c(-c3ccc(F)cc3)c12 | 188 to 191
16 | CC1CC(C)(C)C(=O)C=C1Cc1ccc(Cl)cc1 (stereo not drawn) | 76 to 77
17 | Cc1noc(C)c1-c1cnc2c(c1)N(Cc1c(F)ccc(F)c1Cl)CCN2 | 215 to 216

Row | Compound | melting point [°C]
18 | CC#CCOc1cc(Oc2c(F)cccc2F)ncn1 | 79.8
19 | CC(C)(C)c1cc2c(cc1O)C(C)(C)CC2(C)C | 114
20 | O=[N+]([O-])c1cc2nc(Cl)n(C3OC(CO)C(O)C3O)c2cc1[N+](=O)[O-] (stereo not drawn) | 132 to 135
21 | CC(C)(C)OCCOc1cc(NC(=O)OC(C)(C)C)c([N+](=O)[O-])cc1I | 113 to 116
22 | O=C(O)CCCS(=O)(=O)NC(=O)CCC(F)(F)C(F)(F)C(F)(F)C(F)(F)C(F)(F)C(F)(F)F | 175 to 180
23 | Cc1cccc(NC(=O)NC2N=C(c3ccccc3F)c3ccccc3N(CCC3OCCO3)C2=O)c1 (racemic) | 214 to 215
24 | CC1Sc2c(C(=O)O)c(=O)c3cc(F)c(N4CCNC(=O)C4)cc3n21 (stereo not drawn) | 198 to 200
25 | Cc1c(C)c2c(c(C)c1OCc1ccc(S(C)(=O)=O)cc1)C(c1ccc(C(C)C)cc1)C(C)(C)O2 (stereo not drawn) | 161 to 162
26 | N#Cc1ccc(C(=O)N2CCc3c(n(Cc4cccc(C#N)c4)c4ccccc34)C2)cc1 | 178 to 180
27 | COC(=O)c1cc(C(=O)O)nn1C | 175
28 | N=C(CCCSc1nccc(NC(N)=NCC(F)(F)F)n1)NC(N)=O | 112 to 115
29 | CCCCOCC1OC(n2c(Cl)nc3cc(Cl)c(Cl)cc32)C(O)C1O (stereo not drawn) | 70 to 72
30 | CC(=O)N1CCN(c2cc3c(c(C)c2F)c(=O)c(C(=O)O)cn3C2CC2)CC1 | 261 to 263
31 | Cc1c(C)c2c(c(C)c1NC(=O)CC(C)(C)C)OCC2c1ccc(C(C)C)cc1 (stereo not drawn) | 214 to 215
32 | COc1ccc(-c2nc(S(=O)(=O)c3nccs3)[nH]c2-c2ccc(OC)cc2)cc1 | 219
33 | CC(C)c1ccc(NC(=O)N2CCc3cc(S(=O)(=O)N4CCN(c5cccc(Cl)c5)CC4)ccc32)cc1 | 182

Second part, the compound after the results:

Row | melting point [°C] | Compound
34 | 164 to 166 | CCOC(=O)C(Cc1c[nH]c2c(F)cccc12)(NC=O)C(=O)OCC
35 | 153 to 154 | CCN(CC)Cc1nc2cc(OC)c(OC)cc2c(-c2ccc(OC)c(OC)c2)c1C(=O)CC(C)C
36 | 160 to 162 | Nc1cccc(S(=O)(=O)NC(=O)c2ccccc2)c1
37 | 196 to 197 | CC(C)(C)COc1ccc(NC(=O)c2cnn(-c3ccc(F)cc3)c2)cc1C#N
38 | 174 to 175 | Cc1c(CN2CCc3c(c4cccc(F)c4n3C)C2=O)ncn1C
39 | 112 to 114 | Cc1ncn(C(=O)Nc2ccccc2)c1Cl
40 | 78 to 81 | CCN(CC)c1ccc(C=O)c(OCc2ccccn2)c1
41 | 267 | CC(=O)N1CC(=O)NC(=O)N1c1cc(Cl)c(Oc2ccc(S(C)(=O)=O)cc2)c(Cl)c1
42 | 94 to 95 | N#Cc1cccc(OCc2ccccc2)c1[N+](=O)[O-]
43 | 167 to 168 | CCN(CC)C(=O)Cc1nn(-c2ccccc2)c(=O)c2c1c1ccc(Cl)cc1n2C
44 | 138 to 140 | CCC(=C(c1ccccc1)c1ccc(C=CC(=O)N(CC)CC)cc1)c1ccccc1
45 | 146 to 147 | CCc1cnc(N2CCN(C(=O)c3cccc(Nc4ncnc5ccccc45)c3)CC2)nc1
46 | 130 to 131 | Cc1cc2c(ccc3ccsc32)c2ccccc12
47 | 142 to 143 | COCc1cc(O[C@@H]2c3ccccc3C[C@H]2O)c2nc(C)c(C)n2c1 (relative stereo)
48 | 150 to 155 | O=C1CSC=C(c2ccccc2)N1
49 | 136 to 138 | CCc1cncnc1Nc1ccc(C(=O)CCC2CCN(Cc3ccccc3)CC2)cc1
50 | 144 | O=C(O)CCCCCN1C(=O)c2cccc([N+](=O)[O-])c2C1=O
51 | 155 to 157 | Nc1ccccc1-c1cc2ccc(Cl)cc2[nH]c1=O

Row | melting point [°C] | Compound
52 | 175 to 177 | COc1ccc(Cc2cnc(N)nc2N)cc1OCCCSc1ccc(NC(C)=O)cc1
53 | 229 to 231 | COc1cc(OC)nc(NC(=O)NS(=O)(=O)c2cccc3c2S(=O)(=O)N(C)C3)n1
54 | 61.5 to 64 | CCC(=O)NCCOc1ccccc1
55 | 88.5 to 90.5 | COC(=O)CCCCCCCCCCCCCCCCCCCCCN1C(=O)c2ccccc2C1=O
56 | 49 to 50 | COCOc1cccc2c(Br)cccc12
57 | 144 to 145 | CCC(C)(C)c1ccc(OCCCC(=O)Nc2ccc(Cl)c(NC(=O)CC(=O)C(C)(C)Sc3ccccc3)c2)c(C(C)(C)CC)c1
58 | 163 to 165 | CO/C=C(/C(=O)OC)c1cccnc1Oc1cccc(O)c1
59 | 235 to 237 | Cc1ccc(CC2CCN(C(=O)C(=O)Nc3ccc4c(c3)CC(=O)N4)CC2)cc1
60 | 120 to 125 | O=c1c2c(N3CCNCC3)cc(Cl)cc2n(Cc2ccccc2)c(=O)n1Cc1ccccc1Cl
61 | 40 to 41 | N#CC(NCCc1cccs1)c1ccccc1Cl (stereo not drawn)
62 | 55 to 60 | CCCCCCCCCCCCC1CC(=O)N(NC(=O)CCc2cc(C(C)(C)C)c(O)c(C(C)(C)C)c2)C1=O (stereo not drawn)
63 | 153 to 154 | CCNc1c(-c2ccccc2C)nc2c3cc(OC)ccc3ccn12
64 | 227 to 229 | O=C(O)c1ccc(COCc2csc3nc(C(=O)NCCc4ccccc4)[nH]c(=O)c23)cc1
65 | 187 to 189 | COc1ccc2nc(COc3cccc(C(=O)Nc4cc(CCCS(=O)(=O)c5ccc(Cl)cc5)ccc4OCC(=O)O)c3)sc2c1
66 | 78 to 80 | COCCC1CCCCCc2c1oc(=O)c(C(c1ccccc1)C1CC1)c2O (stereo not drawn)
67 | 95 | CCOC(=O)COc1ccc(Oc2ccc3cc(Cl)ccc3n2)cc1
68 | 39 to 43 | ClCc1cccc(OCc2ccc3ccccc3n2)c1
